# Measurements: patent publication US20170226081A1, “GLUCOSE TRANSPORT INHIBITORS” (Bayer Pharma Aktiengesellschaft, priority 2014, published 2017)
# pIC50: −log10 of the molar value.
# Columns and labels:
# GLUT1 = biological target: T1, GLUT1 (Homo sapiens, UniProt P11166); assay: Indirect measurement of GLUT activity by quantification of intracellular ATP levels (glucose induced ATP increase); type: cell-based; details: DLD1 cells; 1 mM glucose, 1 uM Rotenone, 15 min; standardized to cytochalasin B IC50 values; read-out: IC50 regarding glucose induced ATP increase (GLUT1 inhibition)
# T1 construct: endogenous in cells
# T1 sequence (P11166 1-492): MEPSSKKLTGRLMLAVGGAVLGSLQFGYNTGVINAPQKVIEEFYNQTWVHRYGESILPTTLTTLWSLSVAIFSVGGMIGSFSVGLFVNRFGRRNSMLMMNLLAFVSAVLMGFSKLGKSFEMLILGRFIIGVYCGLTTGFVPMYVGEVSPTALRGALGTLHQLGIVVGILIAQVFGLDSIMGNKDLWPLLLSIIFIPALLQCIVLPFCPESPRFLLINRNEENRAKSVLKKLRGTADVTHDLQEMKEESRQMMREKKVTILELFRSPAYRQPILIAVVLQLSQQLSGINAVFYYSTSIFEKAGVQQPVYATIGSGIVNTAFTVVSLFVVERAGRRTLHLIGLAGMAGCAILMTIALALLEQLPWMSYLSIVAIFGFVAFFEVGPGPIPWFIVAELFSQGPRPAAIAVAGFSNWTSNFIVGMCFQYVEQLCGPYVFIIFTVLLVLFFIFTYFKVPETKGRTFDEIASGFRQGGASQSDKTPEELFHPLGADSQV
# Description: (§1) It is well known that a combination of small-molecule inhibitors of mitochondrial electron transport chain and glucose catabolism synergistically suppress ATP production and impair cellular viability (Ulanovskaya et al., 2008, 2011; Liu, et al. 2001). We therefore used DLD1 or CHO-K1 cells in combination with an oxidative phosphorylation inhibitor to identify GLUT inhibitors. Cell lines were maintained in DMEM medium supplemented with 10% FCS and 1% Penicillin-Streptomycin solution and 2% Glutamax. The cells were treated with trypsin and seeded into 384 plates at a density of 4000 cells/well. The cells were then cultured overnight in glucose free media containing 1% FCS to reduce intracellular ATP levels. After 24 h the cells were incubated at 37° C. containing the appropriate glucose or in case of GLUT2 fructose concentration (1 mM and 30 mM respectively) with or without compounds and 1 uM Rotenone for 15 min. The CellTiter-Glo® Luminescent Cell Viability Assay from Promega was then used to measure ATP levels. Compounds able to reduce the ATP Levels within 15 min of glucose application were considered to be glucose uptake inhibitors.
# GLUT2 = biological target: T2, GLUT2 (Homo sapiens, UniProt P11168); assay: Indirect measurement of GLUT activity by quantification of intracellular ATP levels (fructose induced ATP increase); type: cell-based; details: 30 mM fructose, 1 uM Rotenone, 15 min; read-out: IC50 regarding fructose induced ATP increase (GLUT2 inhibition)
# T2 sequence (P11168 1-524): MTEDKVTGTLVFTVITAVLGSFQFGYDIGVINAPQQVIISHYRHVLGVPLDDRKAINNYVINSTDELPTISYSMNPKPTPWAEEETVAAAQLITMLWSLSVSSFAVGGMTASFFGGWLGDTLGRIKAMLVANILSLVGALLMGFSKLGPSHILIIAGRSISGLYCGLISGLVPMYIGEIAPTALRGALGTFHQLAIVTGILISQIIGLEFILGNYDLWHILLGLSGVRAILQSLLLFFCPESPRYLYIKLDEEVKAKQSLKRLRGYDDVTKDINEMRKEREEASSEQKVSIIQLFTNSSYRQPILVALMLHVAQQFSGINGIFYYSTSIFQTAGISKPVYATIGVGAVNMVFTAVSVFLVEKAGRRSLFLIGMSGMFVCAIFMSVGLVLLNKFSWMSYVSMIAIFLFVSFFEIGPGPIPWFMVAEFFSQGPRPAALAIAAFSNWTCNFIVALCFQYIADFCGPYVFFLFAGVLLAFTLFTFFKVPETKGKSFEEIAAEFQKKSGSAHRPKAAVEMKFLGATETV
# Description: as §1
pIC50 (GLUT1),pIC50 (GLUT2),Compound
7.21,5.28,"Cc1ccc2nc(C)cc(C(=O)Nc3cn(Cc4ccc(F)cc4)nc3C)c2c1 [Example 1, N-[1-(4-fluorobenzyl)-3-methyl-1H-pyrazol-4-yl]-2,6-dimethylquinoline-4-carboxamide]"
8.37,4.44,"Cc1nn(Cc2ccc(C#N)cc2)cc1NC(=O)c1cc(C(N)=O)nc2ccccc12 [Example 9, N^4-[1-(4-cyanobenzyl)-3-methyl-1H-pyrazol-4-yl]quinoline-2,4-dicarboxamide]"
7.08,–,"Cc1nn(Cc2ccc(F)c(F)c2)cc1NC(=O)c1cc(C(N)=O)nc2ccccc12 [Example 55, N^4-[1-(3,4-difluorobenzyl)-3-methyl-1H-pyrazol-4-yl]quinoline-2,4-dicarboxamide]"
6.41,–,"CCc1noc(Cn2cc(NC(=O)c3cc(C(F)(F)F)nc4ccc(Br)cc34)c(C)n2)n1 [Example 64, 6-bromo-N-{1-[(3-ethyl-1,2,4-oxadiazol-5-yl)methyl]-3-methyl-1H-pyrazol-4-yl}-2-(trifluoromethyl)quinoline-4-carboxamide]"
6.52,–,"CNC(=O)c1nc(Cn2cc(NC(=O)c3cc(C(N)=O)nc4ccccc34)c(C)n2)no1 [Example 65, N^4-(3-methyl-1-{[5-(methylcarbamoyl)-1,2,4-oxadiazol-3-yl]methyl}-1H-pyrazol-4-yl)quinoline-2,4-dicarboxamide]"
6.59,–,"Cc1nc(Cn2cc(NC(=O)c3cc(C(N)=O)nc4ccccc34)c(C)n2)cs1 [Example 68, N^4-{3-methyl-1-[(2-methyl-1,3-thiazol-4-yl)methyl]-1H-pyrazol-4-yl}quinoline-2,4-dicarboxamide]"
6.53,–,"Cc1cc(Cn2cc(NC(=O)c3cc(C(F)(F)F)nc4ccc(Br)cc34)c(C)n2)no1 [Example 71, 6-bromo-N-{3-methyl-1-[(5-methyl-1,2-oxazol-3-yl)methyl]-1H-pyrazol-4-yl}-2-(trifluoromethyl)quinoline-4-carboxamide]"
6.76,–,"Cc1nn(Cc2ccn(C)n2)cc1NC(=O)c1cc(C(F)(F)F)nc2ccc(Br)cc12 [Example 73, 6-bromo-N-{3-methyl-1-[(1-methyl-1H-pyrazol-3-yl)methyl]-1H-pyrazol-4-yl}-2-(trifluoromethyl)quinoline-4-carboxamide]"

# Second part, the molecule before the results:
Compound,pIC50 (GLUT1),pIC50 (GLUT2)
"Cc1nn(Cc2cccc(F)c2)cc1NC(=O)c1cc(C(N)=O)nc2ccccc12 [Example 56, N^4-[1-(3-fluorobenzyl)-3-methyl-1H-pyrazol-4-yl]quinoline-2,4-dicarboxamide]",6.71,–
"Cc1nn(CC2CCCCC2)cc1NC(=O)c1cc(C(N)=O)nc2ccccc12 [Example 57, N^4-[1-(cyclohexylmethyl)-3-methyl-1H-pyrazol-4-yl]quinoline-2,4-dicarboxamide]",6.25,–
"Cc1nn(Cc2ccncc2)cc1NC(=O)c1cc(C(N)=O)nc2ccccc12 [Example 58, N^4-[3-methyl-1-(pyridin-4-ylmethyl)-1H-pyrazol-4-yl]quinoline-2,4-dicarboxamide]",6.15,–
"CCc1nn(Cc2ccc(C#N)cc2)cc1NC(=O)c1cc(C(N)=O)nc2cc(F)ccc12 [Example 59, N^4-[1-(4-cyanobenzyl)-3-ethyl-1H-pyrazol-4-yl]-7-fluoroquinoline-2,4-dicarboxamide]",7.47,–
"CCc1nn(Cc2ccc(C#N)cc2)cc1NC(=O)c1cc(C(N)=O)nc2ccccc12 [Example 60, N^4-[1-(4-cyanobenzyl)-3-ethyl-1H-pyrazol-4-yl]quinoline-2,4-dicarboxamide]",7.64,–
"CC(C)c1nn(Cc2ccc(C#N)cc2)cc1NC(=O)c1cc(C(N)=O)nc2cc(F)ccc12 [Example 62, N^4-[1-(4-cyanobenzyl)-3-isopropyl-1H-pyrazol-4-yl]-7-fluoroquinoline-2,4-dicarboxamide]",6.92,–
"Cc1nn(Cc2ccn(C)n2)cc1NC(=O)c1cc(C(N)=O)nc2ccccc12 [Example 63, N^4-{3-methyl-1-[(1-methyl-1H-pyrazol-3-yl)methyl]-1H-pyrazol-4-yl}quinoline-2,4-dicarboxamide]",6.72,–
"CCc1noc(Cn2cc(NC(=O)c3cc(C(N)=O)nc4ccccc34)c(C)n2)n1 [Example 66, N^4-{1-[(3-ethyl-1,2,4-oxadiazol-5-yl)methyl]-3-methyl-1H-pyrazol-4-yl}quinoline-2,4-dicarboxamide]",6.37,–
"CCS(=O)(=O)N1CCC(Cn2cc(NC(=O)c3cc(C(F)(F)F)nc4ccc(Br)cc34)c(C)n2)CC1 [Example 67, 6-bromo-N-(1-{[1-(ethylsulfonyl)piperidin-4-yl]methyl}-3-methyl-1H-pyrazol-4-yl)-2-(trifluoromethyl)quinoline-4-carboxamide]",6.18,–
"CNC(=O)c1nc(Cn2cc(NC(=O)c3cc(C(F)(F)F)nc4ccc(Br)cc34)c(C)n2)no1 [Example 69, 6-bromo-N-(3-methyl-1-{[5-(methylcarbamoyl)-1,2,4-oxadiazol-3-yl]methyl}-1H-pyrazol-4-yl)-2-(trifluoromethyl)quinoline-4-carboxamide]",7.19,–
"Cc1nc(Cn2cc(NC(=O)c3cc(C(F)(F)F)nc4ccc(Br)cc34)c(C)n2)cs1 [Example 70, 6-bromo-N-{3-methyl-1-[(2-methyl-1,3-thiazol-4-yl)methyl]-1H-pyrazol-4-yl}-2-(trifluoromethyl)quinoline-4-carboxamide]",6.56,–
"CCS(=O)(=O)N1CCC(Cn2cc(NC(=O)c3cc(C(N)=O)nc4ccccc34)c(C)n2)CC1 [Example 72, N^4-(1-{[1-(ethylsulfonyl)piperidin-4-yl]methyl}-3-methyl-1H-pyrazol-4-yl)quinoline-2,4-dicarboxamide]",6.61,–
"Cc1cc(Cn2cc(NC(=O)c3cc(C(N)=O)nc4ccccc34)c(C)n2)no1 [Example 74, N^4-{3-methyl-1-[(5-methyl-1,2-oxazol-3-yl)methyl]-1H-pyrazol-4-yl}quinoline-2,4-dicarboxamide]",6.82,–
